Reference: PubChem BioAssay (NCI)
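At the GI50, growth is halved. The concentration for full growth arrest is given as TGI.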

Assays:
Assay in all cases: DTP human tumour cell line panel, 384-well format
IGROV1 ovarian = test system: IGROV1 ovarian
SF-539 CNS = test system: SF-539 CNS
MOLT-4 leukemia = test system: MOLT-4 leukemia
CAKI-1 renal = test system: CAKI-1 renal
SK-OV-3 ovarian = test system: SK-OV-3 ovarian
EKVX NSCLC = test system: EKVX NSCLC
PC-3 prostate = test system: PC-3 prostate
SNB-19 CNS = test system: SNB-19 CNS
KM12 colon = test system: KM12 colon
HOP-62 NSCLC = test system: HOP-62 NSCLC
NCI-H226 lung = test system: NCI-H226 lung
K-562 leukemia = test system: K-562 leukemia
HCC-2998 colon = test system: HCC-2998 colon
TK-10 renal = test system: TK-10 renal
HL-60(TB) leukemia = test system: HL-60(TB) leukemia
RXF 393 renal = test system: RXF 393 renal
SF-295 CNS = test system: SF-295 CNS
A498 renal = test system: A498 renal
DU-145 prostate = test system: DU-145 prostate
HS 578T breast = test system: HS 578T breast
A549 NSCLC = test system: A549 NSCLC
HCT-15 colon = test system: HCT-15 colon
ACHN renal = test system: ACHN renal
U251 glioblastoma = test system: U251 glioblastoma
T-47D breast = test system: T-47D breast
SN12C renal = test system: SN12C renal
CCRF-CEM leukemia = test system: CCRF-CEM leukemia
COLO 205 colon = test system: COLO 205 colon
MDA-MB-435 melanoma = test system: MDA-MB-435 melanoma
786-0 renal = test system: 786-0 renal
NCI-H522 lung = test system: NCI-H522 lung
SK-MEL-5 melanoma = test system: SK-MEL-5 melanoma
NCI-H23 lung = test system: NCI-H23 lung
OVCAR-3 ovarian = test system: OVCAR-3 ovarian
HT29 colon = test system: HT29 colon
MCF7 breast = test system: MCF7 breast
UO-31 renal = test system: UO-31 renal
UACC-257 melanoma = test system: UACC-257 melanoma
NCI-H460 NSCLC = test system: NCI-H460 NSCLC
SF-268 CNS = test system: SF-268 CNS
OVCAR-5 ovarian = test system: OVCAR-5 ovarian
HCT-116 colon = test system: HCT-116 colon
NCI/ADR-RES ovarian = test system: NCI/ADR-RES ovarian
LOX IMVI melanoma = test system: LOX IMVI melanoma
OVCAR-4 ovarian = test system: OVCAR-4 ovarian
RPMI-8226 leukemia = test system: RPMI-8226 leukemia
SK-MEL-28 melanoma = test system: SK-MEL-28 melanoma
M14 melanoma = test system: M14 melanoma
MDA-MB-231 breast = test system: MDA-MB-231 breast
SW-620 colon = test system: SW-620 colon
BT-549 breast = test system: BT-549 breast
MDA-MB-468 breast = test system: MDA-MB-468 breast
MALME-3M melanoma = test system: MALME-3M melanoma
SNB-75 CNS = test system: SNB-75 CNS
OVCAR-8 ovarian = test system: OVCAR-8 ovarian
NCI-H322M lung = test system: NCI-H322M lung
UACC-62 melanoma = test system: UACC-62 melanoma
HOP-92 NSCLC = test system: HOP-92 NSCLC

SMILES: C[C@@H]1CN(Cc2ccc(F)cc2)[C@@H](C)CN1C(=O)c1cc2c(C(=O)C(=O)N(C)C)cn(C)c2cc1Cl
- GI50 (IGROV1 ovarian): 14.2 µM
- TGI (IGROV1 ovarian): 28.3 µM
- GI50 (SF-539 CNS): 17.2 µM
- TGI (SF-539 CNS): 31.3 µM
- GI50 (MOLT-4 leukemia): 12.9 µM
- TGI (MOLT-4 leukemia): 25.7 µM
- GI50 (CAKI-1 renal): 15.4 µM
- TGI (CAKI-1 renal): 41 µM
- GI50 (SK-OV-3 ovarian): 19.6 µM
- TGI (SK-OV-3 ovarian): 42.7 µM
- GI50 (EKVX NSCLC): 15.3 µM
- TGI (EKVX NSCLC): 35 µM
- GI50 (PC-3 prostate): 18.6 µM
- TGI (PC-3 prostate): 35 µM
- GI50 (SNB-19 CNS): 24.1 µM
- TGI (SNB-19 CNS): 58.1 µM
- GI50 (KM12 colon): 14.8 µM
- TGI (KM12 colon): 29.7 µM
- GI50 (HOP-62 NSCLC): 10.8 µM
- TGI (HOP-62 NSCLC): 24.1 µM
- GI50 (NCI-H226 lung): 10.3 µM
- TGI (NCI-H226 lung): 23.9 µM
- GI50 (K-562 leukemia): 7.01 µM
- TGI (K-562 leukemia): 20.8 µM
- GI50 (HCC-2998 colon): 17.1 µM
- TGI (HCC-2998 colon): 31.5 µM
- GI50 (TK-10 renal): 23.8 µM
- TGI (TK-10 renal): 52.3 µM
- GI50 (HL-60(TB) leukemia): 20.7 µM
- TGI (HL-60(TB) leukemia): 35.1 µM
- GI50 (RXF 393 renal): 14.9 µM
- TGI (RXF 393 renal): 28.9 µM
- GI50 (SF-295 CNS): 16.4 µM
- TGI (SF-295 CNS): 31.9 µM
- GI50 (A498 renal): 13.6 µM
- TGI (A498 renal): 29.2 µM
- GI50 (DU-145 prostate): 19.1 µM
- TGI (DU-145 prostate): 37.8 µM
- GI50 (HS 578T breast): 12.7 µM
- TGI (HS 578T breast): 26.5 µM
- GI50 (A549 NSCLC): 13.8 µM
- TGI (A549 NSCLC): 35.5 µM
- GI50 (HCT-15 colon): 19.8 µM
- TGI (HCT-15 colon): 39.3 µM
- GI50 (ACHN renal): 14.4 µM
- TGI (ACHN renal): 43 µM
- GI50 (U251 glioblastoma): 16.4 µM
- TGI (U251 glioblastoma): 30.7 µM
- GI50 (T-47D breast): 1.99 µM
- TGI (T-47D breast): 17.2 µM
- GI50 (SN12C renal): 15.8 µM
- TGI (SN12C renal): 31.7 µM
- GI50 (CCRF-CEM leukemia): 15.3 µM
- TGI (CCRF-CEM leukemia): 28.8 µM
- GI50 (COLO 205 colon): 10.9 µM
- TGI (COLO 205 colon): 23.7 µM
- GI50 (MDA-MB-435 melanoma): 15.5 µM
- TGI (MDA-MB-435 melanoma): 31.1 µM
- GI50 ([…]-0 renal): 13.6 µM
- TGI (786-0 renal): 28.5 µM
- GI50 (NCI-H522 lung): 20.5 µM
- TGI (NCI-H522 lung): 38.1 µM
- GI50 (SK-MEL-5 melanoma): 7.47 µM
- TGI (SK-MEL-5 melanoma): 20.5 µM
- GI50 (NCI-H23 lung): 20.1 µM
- TGI (NCI-H23 lung): 44.5 µM
- GI50 (OVCAR-3 ovarian): 17.8 µM
- TGI (OVCAR-3 ovarian): 32.1 µM
- GI50 (HT29 colon): 12.7 µM
- TGI (HT29 colon): 27 µM
- GI50 (MCF7 breast): 10.8 µM
- TGI (MCF7 breast): 24.1 µM
- GI50 (UO-31 renal): 15.1 µM
- TGI (UO-31 renal): 29.6 µM
- GI50 (UACC-257 melanoma): 19.7 µM
- TGI (UACC-257 melanoma): 34.1 µM
- GI50 (NCI-H460 NSCLC): 12.7 µM
- TGI (NCI-H460 NSCLC): 26.9 µM
- GI50 (SF-268 CNS): 2.33 µM
- TGI (SF-268 CNS): 14.7 µM
- GI50 (OVCAR-5 ovarian): 19.9 µM
- TGI (OVCAR-5 ovarian): 52.1 µM
- GI50 (HCT-116 colon): 16.1 µM
- TGI (HCT-116 colon): 30.5 µM
- GI50 (NCI/ADR-RES ovarian): 18.3 µM
- TGI (NCI/ADR-RES ovarian): 41.6 µM
- GI50 (LOX IMVI melanoma): 14.8 µM
- TGI (LOX IMVI melanoma): 28.5 µM
- GI50 (OVCAR-4 ovarian): 22.4 µM
- TGI (OVCAR-4 ovarian): 46.9 µM
- GI50 (RPMI-8226 leukemia): 12.2 µM
- TGI (RPMI-8226 leukemia): 24.7 µM
- GI50 (SK-MEL-28 melanoma): 16.1 µM
- TGI (SK-MEL-28 melanoma): 31.6 µM
- GI50 (M14 melanoma): 14.1 µM
- TGI (M14 melanoma): 28.8 µM
- GI50 (MDA-MB-231 breast): 23.2 µM
- TGI (MDA-MB-231 breast): 61.9 µM
- GI50 (SW-620 colon): 18 µM
- TGI (SW-620 colon): 40.9 µM
- GI50 (BT-549 breast): 17.7 µM
- TGI (BT-549 breast): 31.8 µM
- GI50 (MDA-MB-468 breast): 2.8 µM
- TGI (MDA-MB-468 breast): 17.4 µM
- GI50 (MALME-3M melanoma): 18.3 µM
- TGI (MALME-3M melanoma): 32.6 µM
- GI50 (SNB-75 CNS): 15.7 µM
- TGI (SNB-75 CNS): 33.8 µM
- GI50 (OVCAR-8 ovarian): 17.9 µM
- TGI (OVCAR-8 ovarian): 38.9 µM
- GI50 (NCI-H322M lung): 17.5 µM
- TGI (NCI-H322M lung): 35.3 µM
- GI50 (UACC-62 melanoma): 8.17 µM
- TGI (UACC-62 melanoma): 20.9 µM
- GI50 (HOP-92 NSCLC): 17.1 µM
- TGI (HOP-92 NSCLC): 31.2 µM
